Test results reported in PubChem BioAssay AID2060485 (Molecular Pharmacology Branch, DTP, NCI, 2025).

System: A375 multi-cell spheroids with HUVEC/MSC, viability
Assay: Anticancer human tumor A375 cell line growth inhibition [GQUAD];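 also: spheroids exposed to compounds for seven days before readout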
Conditions: for IC50: curve of first compound; for viability, T/C: stronger effect = lower value
Method in brief: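 Multi-cell-type spheroids of tumor cells with HUVEC and mesenchymal stem cells, treated with drug combinations. Concentrations descend in half-log steps from near clinical Cmax, or from 10 microM where Cmax is unknown; viability read-out.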

[1] = second compound 0.0316 µM, first compound 0.0316 µM
[2] = second compound 0.0316 µM, first compound 0.316 µM
[3] = second compound 0.1 µM, first compound 0.0316 µM
[4] = second compound 0.1 µM, first compound 0.316 µM
[5] = second compound 0.316 µM, first compound 0.0316 µM
[6] = second compound 0.316 µM, first compound 0.316 µM
[7] = second compound 1 µM, first compound 0.0316 µM
[8] = second compound 1 µM, first compound 0.316 µM
[9] = second compound 3.16 µM, first compound 0.0316 µM
[10] = second compound 3.16 µM, first compound 0.316 µM
[11] = second compound 10 µM, first compound 0.0316 µM
[12] = second compound 10 µM, first compound 0.316 µM
[13] = second compound 0.0316 µM, first compound 0.1 µM
[14] = second compound 0.0316 µM, first compound 1 µM
[15] = second compound 0.0316 µM, first compound 3.16 µM
[16] = second compound 0.0316 µM, first compound 10 µM
[17] = second compound 0.1 µM, first compound 0.1 µM
[18] = second compound 0.1 µM, first compound 1 µM
[19] = second compound 0.1 µM, first compound 3.16 µM
[20] = second compound 0.1 µM, first compound 10 µM
[21] = second compound 0.316 µM, first compound 0.1 µM
[22] = second compound 0.316 µM, first compound 1 µM
[23] = second compound 0.316 µM, first compound 3.16 µM
[24] = second compound 0.316 µM, first compound 10 µM
[25] = second compound 1 µM, first compound 0.1 µM
[26] = second compound 1 µM, first compound 1 µM
[27] = second compound 1 µM, first compound 3.16 µM
[28] = second compound 1 µM, first compound 10 µM
[29] = second compound 3.16 µM, first compound 0.1 µM
[30] = second compound 3.16 µM, first compound 1 µM
[31] = second compound 3.16 µM, first compound 3.16 µM
[32] = second compound 3.16 µM, first compound 10 µM
[33] = second compound 10 µM, first compound 0.1 µM
[34] = second compound 10 µM, first compound 1 µM
[35] = second compound 10 µM, first compound 3.16 µM
[36] = second compound 10 µM, first compound 10 µM

Structure (SMILES): Cn1ncnc1[C@H]1c2n[nH]c(=O)c3cc(F)cc(c23)N[C@@H]1c1ccc(F)cc1 + Cc1cnc(CNC(=O)c2c(=O)c3ccc(N4CCCN(C)CC4)nc3n3c2sc2ccccc23)cn1
- IC50 (second compound 0.0316 µM): > 316 nM
- IC50 (second compound 0.1 µM): > 316 nM
- IC50 (second compound 0.316 µM): 40.3 nM
- IC50 (second compound 1 µM): < 0.999 nM
- IC50 (second compound 3.16 µM): < 0.999 nM
- IC50 (second compound 10 µM): < 0.999 nM
- viability, T/C (second compound 0.0316 µM, first compound 0.000999 µM): 100%
- viability, T/C (second compound 0.0316 µM, first compound 0.00316 µM): 98.9%
- viability, T/C (second compound 0.0316 µM, first compound 0.00999 µM): 107%
- viability, T/C [1]: 97.4%
- viability, T/C (second compound 0.0316 µM, first compound 0.0999 µM): 75.6%
- viability, T/C [2]: 90.6%
- viability, T/C (second compound 0.1 µM, first compound 0.000999 µM): 98.7%
- viability, T/C (second compound 0.1 µM, first compound 0.00316 µM): 73.7%
- viability, T/C (second compound 0.1 µM, first compound 0.00999 µM): 72.2%
- viability, T/C [3]: 68.9%
- viability, T/C (second compound 0.1 µM, first compound 0.0999 µM): 55.7%
- viability, T/C [4]: 60.5%
- viability, T/C (second compound 0.316 µM, first compound 0.000999 µM): 55.8%
- viability, T/C (second compound 0.316 µM, first compound 0.00316 µM): 55.5%
- viability, T/C (second compound 0.316 µM, first compound 0.00999 µM): 49.4%
- viability, T/C [5]: 53.8%
- viability, T/C (second compound 0.316 µM, first compound 0.0999 µM): 46.6%
- viability, T/C [6]: 43%
- viability, T/C (second compound 1 µM, first compound 0.000999 µM): 39%
- viability, T/C (second compound 1 µM, first compound 0.00316 µM): 47.1%
- viability, T/C (second compound 1 µM, first compound 0.00999 µM): 44.3%
- viability, T/C [7]: 41.8%
- viability, T/C (second compound 1 µM, first compound 0.0999 µM): 41.4%
- viability, T/C [8]: 44.3%
- viability, T/C (second compound 3.16 µM, first compound 0.000999 µM): 35.9%
- viability, T/C (second compound 3.16 µM, first compound 0.00316 µM): 43.8%
- viability, T/C (second compound 3.16 µM, first compound 0.00999 µM): 34.2%
- viability, T/C [9]: 30.3%
- viability, T/C (second compound 3.16 µM, first compound 0.0999 µM): 34.2%
- viability, T/C [10]: 32.7%
- viability, T/C (second compound 10 µM, first compound 0.000999 µM): 29.1%
- viability, T/C (second compound 10 µM, first compound 0.00316 µM): 32.7%
- viability, T/C (second compound 10 µM, first compound 0.00999 µM): 33%
- viability, T/C [11]: 32.4%
- viability, T/C (second compound 10 µM, first compound 0.0999 µM): 36.2%
- viability, T/C [12]: 32.3%

Structure (SMILES): COc1cc(C2c3cc4c(cc3C(OC3OC5COC(C)OC5C(O)C3O)C3COC(=O)C23)OCO4)cc(OC)c1O (stereo not drawn) + CN(C)c1ccc(Nc2c3ccc(NC(=O)CCN4CCCC4)cc3nc3cc(NC(=O)CCN4CCCC4)ccc23)cc1
- IC50 (second compound 0.0316 µM): 1020 nM
- IC50 (second compound 0.1 µM): 966 nM
- IC50 (second compound 0.316 µM): 1200 nM
- IC50 (second compound 1 µM): 1410 nM
- IC50 (second compound 3.16 µM): 1580 nM
- IC50 (second compound 10 µM): 1460 nM
- viability, T/C [1]: 99%
- viability, T/C [13]: 105%
- viability, T/C [2]: 75.3%
- viability, T/C [14]: 52.5%
- viability, T/C [15]: 27.5%
- viability, T/C [16]: 19%
- viability, T/C [3]: 109%
- viability, T/C [17]: 103%
- viability, T/C [4]: 71.6%
- viability, T/C [18]: 50.2%
- viability, T/C [19]: 31.1%
- viability, T/C [20]: 18%
- viability, T/C [5]: 107%
- viability, T/C [21]: 107%
- viability, T/C [6]: 74.2%
- viability, T/C [22]: 55.1%
- viability, T/C [23]: 33%
- viability, T/C [24]: 18.2%
- viability, T/C [7]: 117%
- viability, T/C [25]: 105%
- viability, T/C [8]: 86.3%
- viability, T/C [26]: 58.6%
- viability, T/C [27]: 30.9%
- viability, T/C [28]: 18.1%
- viability, T/C [9]: 103%
- viability, T/C [29]: 103%
- viability, T/C [10]: 84.5%
- viability, T/C [30]: 60.1%
- viability, T/C [31]: 35.2%
- viability, T/C [32]: 18.8%
- viability, T/C [11]: 105%
- viability, T/C [33]: 99.9%
- viability, T/C [12]: 80.6%
- viability, T/C [34]: 56.9%
- viability, T/C [35]: 35.9%
- viability, T/C [36]: 20.1%

Structure (SMILES): CCCS(=O)(=O)Nc1ccc(F)c(C(=O)c2c[nH]c3ncc(-c4ccc(Cl)cc4)cc23)c1F + Cc1[nH]c2ccc(F)cc2c1-c1nc2c3cccnc3c3ncccc3c2[nH]1
- IC50 (second compound 0.0316 µM): < 31.6 nM
- IC50 (second compound 0.1 µM): < 31.6 nM
- IC50 (second compound 0.316 µM): < 31.6 nM
- IC50 (second compound 1 µM): < 31.6 nM
- IC50 (second compound 3.16 µM): < 31.6 nM
- IC50 (second compound 10 µM): < 31.6 nM
- viability, T/C [1]: 47.1%
- viability, T/C [13]: 14.9%
- viability, T/C [2]: 7.54%
- viability, T/C [14]: 5.63%
- viability, T/C [15]: 6%
- viability, T/C [16]: 6.44%
- viability, T/C [3]: 40.4%
- viability, T/C [17]: 15.4%
- viability, T/C [4]: 8.57%
- viability, T/C [18]: 6.32%
- viability, T/C [19]: 5.78%
- viability, T/C [20]: 5.39%
- viability, T/C [5]: 43.6%
- viability, T/C [21]: 13.7%
- viability, T/C [6]: 8.7%
- viability, T/C [22]: 6.15%
- viability, T/C [23]: 5.37%
- viability, T/C [24]: 4.44%
- viability, T/C [7]: 32%
- viability, T/C [25]: 14.6%
- viability, T/C [8]: 7.98%
- viability, T/C [26]: 5.57%
- viability, T/C [27]: 5%
- viability, T/C [28]: 1.74%
- viability, T/C [9]: 24.6%
- viability, T/C [29]: 10%
- viability, T/C [10]: 6.35%
- viability, T/C [30]: 3.57%
- viability, T/C [31]: 1.79%
- viability, T/C [32]: 0.23%
- viability, T/C [11]: 30.4%
- viability, T/C [33]: 13.4%
- viability, T/C [12]: 7.1%
- viability, T/C [34]: 4.44%
- viability, T/C [35]: 3.27%
- viability, T/C [36]: 0.2%

Structure (SMILES): COc1cccc2c1C(=O)c1c(O)c3c(c(O)c1C2=O)CC(O)(C(=O)CO)CC3OC1CC(N)C(O)C(C)O1 (stereo not drawn) + Cc1[nH]c2ccc(F)cc2c1-c1nc2c3cccnc3c3ncccc3c2[nH]1
- IC50 (second compound 0.0316 µM): 271 nM
- IC50 (second compound 0.1 µM): 216 nM
- IC50 (second compound 0.316 µM): 286 nM
- IC50 (second compound 1 µM): 251 nM
- IC50 (second compound 3.16 µM): 288 nM
- IC50 (second compound 10 µM): 326 nM
- viability, T/C [1]: 101%
- viability, T/C [13]: 90.8%
- viability, T/C [2]: 38.9%
- viability, T/C [14]: 20.5%
- viability, T/C [15]: 2.15%
- viability, T/C [16]: 0.1%
- viability, T/C [3]: 103%
- viability, T/C [17]: 74.5%
- viability, T/C [4]: 35.2%
- viability, T/C [18]: 19.8%
- viability, T/C [19]: 2.23%
- viability, T/C [20]: 0.08%
- viability, T/C [5]: 110%
- viability, T/C [21]: 89.2%
- viability, T/C [6]: 41.3%
- viability, T/C [22]: 22.7%
- viability, T/C [23]: 3.01%
- viability, T/C [24]: 0.09%
- viability, T/C [7]: 99.3%
- viability, T/C [25]: 82.8%
- viability, T/C [8]: 38.7%
- viability, T/C [26]: 18.7%
- viability, T/C [27]: 3.16%
- viability, T/C [28]: 0.1%
- viability, T/C [9]: 68.2%
- viability, T/C [29]: 60.1%
- viability, T/C [10]: 49.4%
- viability, T/C [30]: 21.3%
- viability, T/C [31]: 0.45%
- viability, T/C [32]: 0.13%
- viability, T/C [11]: 71.9%
- viability, T/C [33]: 72%
- viability, T/C [12]: 48.9%
- viability, T/C [34]: 20.9%
- viability, T/C [35]: 1.35%
- viability, T/C [36]: 0.22%
